Data set [1] can be described thus: Steroidomic (GC-MS/MS) analysis of hippocampal tissue after PA-G administration.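 On all read-outs here: hippocampal steroids quantified by GC-MS/MS, covering free and conjugated forms after hydrolysis, compared against intact rats and rats injected with CDX vehicle alone, five animals per group.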 To be noted: for measurable concentration in the rat brain / increase in concentration compared with basal levels: after PA-G i.p.; for fold increase in the concentration in the rat hippocampus above the basal levels / percentage of total significantly increased (5β) steroids in the rat hippocampus / concentration at 20 min: 20 min after PA-G i.p., 1 mg/kg in CDX; for concentration at 20 min: male, Wistar, rat, in vivo, ip, Steroid concentration in hippocampal tissue, PA-G-Treated (P).
Experimental: In a separate experiment, samples of the hippocampus were obtained from male albino Wistar rats in 6 experimental groups consisting of P12 and P25 animals that were either intact (I), controls (C, i.p. application of a solution of CDX), or in the experimental group (i.p. application of PA-G in a solution of CDX at a dose of 1 mg/kg). Each group consisted of 5 animals. The animals were sacrificed using ether anaesthesia (Penta, Czech Republic) 30 min after administration of the drug. The hippocampi were quickly removed, weighed, and frozen at −80 °C in sterile plastic microvials until analysis.
An amount of 17–100 mg of the hippocampal tissue was minced and then administered into screw-cap tubes. Next, 2 mL of methanol with a mixture of internal standards was added, and the samples were incubated for 1 week in a refrigerator at 4 °C with agitation for 2 min once a day. Afterwards, the extract was transferred into new screw-cap tubes and dried in a vacuum centrifuge at 45 °C. After that, 1 mL of water of chromatographic purity was added, and the samples were further treated as described in our recently published paper [76].
Briefly, the unconjugated steroids were extracted from a testing sample with diethyl-ether, the extract was dried, and the lipids were separated by partitioning between a mixture of methanol with water (4:1, v/v) and pentane. The pentane phase was discarded, and the polar phase was dried and used for further analysis of the unconjugated steroids. Steroid conjugates remaining in the polar residue after diethyl ether were hydrolyzed to their parent hydroxy steroids (unconjugated molecules) and analyzed.

In a further data set the test system is NMDARs. To be noted: NMDA-induced currents, transfected HEK293 cells; cited from earlier work.
Data set [2] has as its system pentylenetetrazol-induced seizures. Kind of data set: Pentylenetetrazol (PTZ)-induced seizures in 12- and 25-day-old rats. Format: in vivo, male Wistar albino rats. The procedure:
Solutions of PA-G and PA-S were administered intraperitoneally at a concentration of 1 mg/mL, and doses of 1, 5, 10, and 20 mg/kg were used. The solutions of zuranolone were administered intraperitoneally at a concentration of 1 mg/mL, and doses of 0.5, 1, 5, and 10 mg/kg were used. Controls were injected with CDX solution in a volume corresponding to the highest dose (i.e., 20 mL/kg). The same control group was used for PA-S and PA-G. Pentylenetetrazol (PTZ, Sigma Aldrich, Gillingham, Dorset, UK) was dissolved in water in a concentration of 50 mg/mL and was administered subcutaneously at a dose of 100 mg/kg 20 min after the administration of PA-G or PA-S. Each age and dose group comprised 8 animals. The rats were placed individually into plexiglass boxes and were then observed for 30 min after PTZ injection. The incidence, severity, and latencies of seizures were assessed. Younger animals were placed on a pad heated to 34 °C, i.e., to the temperature in the nest for the whole duration of the experiment because of immature thermoregulation. Generalized tonic-clonic or clonic seizures with a loss of righting reflexes were present after a dose of 100 mg/kg of PTZ in all control animals in both age groups. […] The severity of seizures was quantified using a five-point scale as follows: 0—no changes; 0.5—abnormal behaviour (e.g., automatisms, increased orienting reaction); 1—isolated myoclonic jerks; 2—atypical or prolonged minimal seizures; 3—clonic seizures (mS) involving head and forelimb muscles with preserved righting reflexes (older-term minimal pentetrazol seizures); 4—generalized seizures without the tonic phase (GCS); 5—complete generalized tonic-clonic seizures (GTCS).

The mark [3] stands for this setting: P12 rats, i.p. doses of 5 and 10 mg/kg.

Structures can show the parent of a compound that is named as a salt.

Regarding 17α-hydroxyprogesterone, the “measurable concentration in the rat brain” value in data set [1] (1 mg/kg) was “did not detect measurable concentrations”.
Regarding `C[C@]12CC[C@@H](O)C[C@H]1CC[C@@H]1[C@@H]2[C@@H](O)C[C@]2(C)[C@@H](C(=O)CO)CC[C@@H]12` [3α,5β-THCC, 3α,5β-tetrahydrocorticosterone], the “fold increase in the concentration in the rat hippocampus above the basal levels” value (from here on “fold increase in the concentration”) in data set [1] (P12) is listed as 4.47 x; in data set [1] (P25) it was 1 x. Also, the “percentage of total significantly increased (5β) steroids in the rat hippocampus” value was “approximately 8%” in data set [1] (P12, 1 mg/kg); 8.12% in data set [1] (P12, listed as 3α,5β-Tetrahydrocorticosterone (3α,5β-THCC), 1 mg/kg); “less than 0.01%” in data set [1] (P25).
As to `C[C@H](O)[C@@]1(O)CCC2C3CC[C@@H]4C[C@H](O)CC[C@]4(C)C3CC[C@@]21C` (stereo partly drawn) [3α,17α,20α-Trihydroxy-5β-pregnane], the results for the “fold increase in the concentration” value in data set [1] (P12) and in data set [1] (P25) were 9.16 x and 2.39 x, respectively. In addition, the figures for the “percentage of total significantly increased (5β) steroids in the rat hippocampus” value in data set [1] (P12) and in data set [1] (P25) were 0.74% and 1.05%, respectively. Further, the concentration at 20 min turned out to be 5.86 ng/g in data set [1] (1 mg/kg, 12-day-old rats) and 0.951 ng/g in data set [1] (1 mg/kg, 25-day-old rats).
For `C[C@H](O)[C@H]1CCC2C3CC[C@@H]4C[C@H](O)CC[C@]4(C)C3CC[C@@]21C` (stereo partly drawn) [3α,20α-Dihydroxy-5β-pregnane], the “fold increase in the concentration” value in data set [1] (P12) turned out to be 78.1 x; in data set [1] (P25) it was 15.7 x. Moreover, the “percentage of total significantly increased (5β) steroids in the rat hippocampus” value in data set [1] (P12) came out at 1.23%; in data set [1] (P25) it was 1.72%. The concentration at 20 min in data set [1] (1 mg/kg, 12-day-old rats) stood at 8.42 ng/g; in data set [1] (1 mg/kg, 25-day-old rats), 0.919 ng/g.
In the case of `CC(=O)[C@H]1CCC2C3CC[C@@H]4CC(=O)CC[C@]4(C)C3CC[C@@]21C` (stereo partly drawn) [5β-Dihydroprogesterone, 5β-dihydroprogesterone], the entries for the “fold increase in the concentration” value in data set [1] (P12) and in data set [1] (P25) were 19 x and 1.9 x, respectively. Further, the results for the “percentage of total significantly increased (5β) steroids in the rat hippocampus” value in data set [1] (P12) and in data set [1] (P25) were 0.07% and 0.09%, respectively. Moreover, the concentration at 20 min in data set [1] (1 mg/kg, 12-day-old rats) is 0.477 ng/g; in data set [1] (1 mg/kg, 25-day-old rats), 0.0943 ng/g.
For `CC(=O)[C@@]1(O)CCC2C3CC[C@H]4C[C@H](O)CC[C@]4(C)C3CC[C@@]21C` (stereo partly drawn) [17-Hydroxyallopregnanolone], the concentration at 20 min in data set [1] (1 mg/kg, 12-day-old rats) came out at 8.36 ng/g; in data set [1] (1 mg/kg, 25-day-old rats), 3.19 ng/g.
For `CC(=O)[C@@]1(O)CC[C@H]2[C@@H]3CC[C@@H]4C[C@H](OC(=O)[C@@H](N)CCC(=O)O)CC[C@]4(C)[C@H]3CC[C@@]21C` [17-Hydroxypregnanolone glutamate], the “fold increase in the concentration” value was found to be 84.6 x in data set [1] (P12) and 14.7 x in data set [1] (P25). The entries for the “percentage of total significantly increased (5β) steroids in the rat hippocampus” value in data set [1] (P12) and in data set [1] (P25) were 0.04% and 0.015%, respectively.
As to `CC(=O)[C@@]1(O)CC[C@H]2[C@@H]3CC=C4CCCC[C@]4(C)[C@H]3CC[C@@]21C` [17α-hydroxypregn-5-en-20-one], the “measurable concentration in the rat brain” value in data set [1] (1 mg/kg) is “did not detect measurable concentrations”.
Consider `C[C@H](O)[C@H]1CC[C@H]2[C@@H]3CC[C@@H]4C[C@H](OC(=O)[C@@H](N)CCC(=O)O)CC[C@]4(C)[C@H]3CC[C@]12C` [(20S)-Hydroxypregnanolone glutamate], for which, in data set [1] (P12), the “fold increase in the concentration” value is listed as 99.7 x and the “percentage of total significantly increased (5β) steroids in the rat hippocampus” value came to 0.53%. Also, in data set [1] (P25), the “fold increase in the concentration” value is given as 10.2 x and the “percentage of total significantly increased (5β) steroids in the rat hippocampus” value was 0.93%.
In the case of `CC(=O)[C@H]1CC[C@H]2[C@@H]3CC[C@H]4C[C@H](O)CC[C@]4(C)[C@H]3CC[C@]12C` [Allopregnanolone, allopregnanolone], the concentration at 20 min came out at 0.246 ng/g in data set [1] (1 mg/kg, 12-day-old rats) and 0.144 ng/g in data set [1] (1 mg/kg, 25-day-old rats).
On to `C[C@]12CC[C@H](OS(=O)(=O)O)CC1=CCC1C2CC[C@@]2(C)C1CC[C@@H]2O` (stereo partly drawn) [Androstenediol sulfate, androstenediol sulfate], for which the concentration at 20 min in data set [1] (1 mg/kg, 12-day-old rats) is 6.07 ng/g; in data set [1] (1 mg/kg, 25-day-old rats) it was 1.62 ng/g.
Taken in the same sequence, the figures for `C[C@]12CC[C@H]3[C@@H](CC=C4C[C@@H](O)CC[C@@]43C)[C@@H]1CC[C@@H]2O` [Androstenediol, androstenediol] were 0.758 ng/g and 0.364 ng/g.
For `C[C@]12CC[C@H](O)CC1=CC[C@@H]1[C@@H]2CC[C@]2(C)C(=O)CC[C@@H]12` [Dehydroepiandrosterone (DHEA), dehydroepiandrosterone], in that order: 1.13 ng/g and 0.644 ng/g.
Take `C[C@]12CC[C@@H](O)C[C@H]1CC[C@@H]1[C@@H]2CC[C@]2(C)C(=O)CC[C@@H]12` [Etiocholanolone (ETIO), etiocholanolone]: the figures for the “percentage of total significantly increased (5β) steroids in the rat hippocampus” value in data set [1] (P12) and in data set [1] (P25) were 0.1% and 0.08%, respectively. Besides, the “increase in concentration compared with basal levels” value is given as about 12 fold in data set [1] (P12 animals, 1 mg/kg) and about 2 fold in data set [1] (P25 animals, 1 mg/kg).
As to `CC(=O)[C@H]1CC[C@H]2[C@@H]3CC[C@@H]4C[C@H](O)CC[C@]4(C)[C@H]3CC[C@]12C` [PA, pregnanolone], the “fold increase in the concentration” value in data set [1] (P12) was found to be 272 x; in data set [1] (P25) it was 12.8 x. Also, the results for the “percentage of total significantly increased (5β) steroids in the rat hippocampus” value in data set [1] (P12) and in data set [1] (P25) were 9.47% and 9.30%, respectively. Also, the “increase in concentration compared with basal levels” value in data set [1] (P12 animals, 1 mg/kg) is “up to 272 fold”. Besides, the concentration at 20 min in data set [1] (1 mg/kg, 12-day-old rats) is 63.6 ng/g; in data set [1] (1 mg/kg, 25-day-old rats) it was 5.02 ng/g. For the same compound, the “percentage of the brain's total 5β-steroids in the hippocampus after PA-G administration” value in data set [1] (stated over P12 and P25 animals, 20 min after PA-G) is “approximately 10%”.
Take `CC(=O)[C@H]1CC[C@H]2[C@@H]3CC[C@@H]4C[C@H](OS(=O)(=O)O)CC[C@]4(C)[C@H]3CC[C@]12C` [PA-S, pyridinium 20-oxo-5β-pregnan-3α-yl sulfate]: the half-inhibitory concentration (IC50) – broadly, the midpoint of a concentration-inhibition curve – with NMDARs is 24 µM. For the same compound, in data set [2] (P12 rats, i.p. 20 mg/kg (highest dose tested)), the “incidence of generalized seizures (GS)” value was “completely eliminated GS”. Besides, the seizure severity entry in data set [2] (P12 rats, i.p. doses of 5 mg/kg and higher, 20 min before PTZ 100 mg/kg s.c.) is “significant decrease in seizure severity”. Also, in data set [2] (setting [3]), the “latencies of GS” value is reported as “significantly prolonged the latencies of GS” and the “tonic phase (TP) of GTCS” value was “completely abolished TP”. Moreover, in data set [2] (P25 rats), the “parameters of minimal seizures (mS)” value is “did not affect any parameters of mS” and the “tonic phase (TF) of GTCS” value is recorded as “did not exhibit specific effects against the TF of GTCS”. Moreover, the “incidence of GS” value in data set [2] (P25 rats, chi2 test over dose groups, Fisher's tests no differences between individual groups) is “affected the incidence of GS”. Moreover, in data set [2] (P25 rats, i.p. 20 mg/kg), the “seizure severity (score)” value is “lower score”.
For `CC(=O)[C@H]1CCC2C3CC=C4C[C@@H](O)CC[C@]4(C)C3CC[C@@]21C` (stereo partly drawn) [Pregnenolone (PE), pregnenolone], the concentration at 20 min amounted to 4.69 ng/g in data set [1] (1 mg/kg, 12-day-old rats) and 3.44 ng/g in data set [1] (1 mg/kg, 25-day-old rats).

The values are drawn from article PMC8780580, “The Neuroactive Steroid Pregnanolone Glutamate: Anticonvulsant Effect, Metabolites and Its Effect on Neurosteroid Levels in Developing Rat Brains” (Pharmaceuticals, 2021).
